From paper PMC11579541, “In vitro, in vivo, and in silico approaches for evaluating the preclinical DMPK profiles of ammoxetine, a novel chiral serotonin and norepinephrine reuptake inhibitor” (Frontiers in Pharmacology, 2024)

Assays:
[1] = PK studies in beagle dogs; type: in vivo; settings: dog, in vivo; beagle dogs, same dose (2 mg/kg); prior preliminary experiment by the team, unpublished results; read-out: absolute bioavailability
Protocol: For the PK studies in rats and dogs, a total of 18 SD rats and 15 male beagle dogs were randomly divided into three groups, with six rats or five dogs per group, respectively. Prior to the experiments, all animals underwent a 12-h fasting period, while having free access to water. The animals were administered single oral doses of ammoxetine in three different dose levels: 8 mg/kg, 20 mg/kg, and 50 mg/kg for rats, and 2 mg/kg, 5 mg/kg, and 12.5 mg/kg for dogs, representing low, medium, and high doses. Serial blood samples were collected from the rats at 0, 2, 5, 15, and 30 min, as well as 1, 2, 4, 6, 8, 12, and 24 h post-dosing. For the dogs, blood samples were collected at 0, 5, 15, 30, and 45 min, as well as 1, 2, 4, 6, 8, 12, and 24 h post-dosing. Approximately 0.3 mL of blood was collected from the rats, while 2 mL of blood was collected from the dogs. The blood samples were collected into heparinized tubes. Following centrifugation, plasma samples were obtained and stored at −30°C until further analysis.
For the absolute bioavailability (F, %) study in dogs, the dogs initially received a single gastric gavage of a low dose (2 mg/kg) of ammoxetine, followed by a 1-week washout period. After the washout, the same dose of ammoxetine was administered intravenously (i.v.). To assess the effects of nonfasting on ammoxetine PK, dogs that received a medium dose (5 mg/kg) of ammoxetine via gastric gavage underwent a radical washout period of 1 week. Subsequently, they were administered the same dose of ammoxetine via gastric gavage under nonfasting conditions. To compare sex differences in ammoxetine PK, an additional five female beagle dogs were administered a medium dose (5 mg/kg) of ammoxetine via gastric gavage after a 12-h overnight fast. Blood samples (2 mL) were collected from these dogs into heparinized tubes at predose and at specified time points: 5, 15, 30, and 45 min, as well as 1, 2, 4, 6, 8, 12, and 24 h postdose. For the repeat-dose study, after completing blood collection during the initial administration, dogs receiving a single gastric gavage of a medium dose (5 mg/kg) of ammoxetine under fasting conditions were subsequently orally dosed with seven repeat doses of ammoxetine (5 mg/kg) every 12 h. Trough blood samples were collected before the fourth to last administration to ensure steady-state blood concentrations (C ss ) were achieved. Approximately 2 mL of blood was collected at specified time points after the last dose and transferred into heparinized tubes. All blood samples were then centrifuged at 4,000 r/min for 20 min to obtain plasma samples, which were stored at −30°C until analysis.
To determine the concentration of ammoxetine, 100 μL of L-phencynonate (IS, 50 ng/mL) and 300 μL of methanol were added to 100 μL of plasma samples from rats or dogs. After thorough vortexing, the mixture was centrifuged at 13,800×g for 10 min. The supernatants were then subjected to analysis using LC-MS-MS methods. PK parameters were calculated using DAS (Drug And Statistics for Windows) version 2.0, developed by the Shanghai University of Traditional Chinese Medicine, Shanghai, China. The F was determined by comparing the plasma area under the concentration-time curve (AUC) values after oral (p.o.) and intravenous (i.v.) administration of ammoxetine. F was calculated using the formula: F=AUCp.o./AUCi.v.×100% . Statistical analyses were performed using OriginPro 8.6 software. Paired sample or student’s t-test, as well as one-way ANOVA, were employed to compare the means of two or three groups, with a significance level set at p < 0.05.

[2] = system: P-gp; settings: ref Ruike et al., 2010; cited from earlier work

Structure (SMILES): CNCC[C@H](Oc1cccc2ccccc12)c1cccs1 [duloxetine, reference compound]
- bioavailability [1]: ~33%
- action on P-gp [2]: P-gp inhibitor
